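Test compounds were applied to cells in 96-well plates for 48 hours at 5 doses. GI50: concentration for 50% inhibition of growth.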 Calls of active or inactive are those of the source. Rule as the data show it: active = GI50 up to about 1.1 µM and inactive = higher.
Assays:
Test in all cases: NCI-60 cell line screen, 48 h
DMS-114 = tested on: DMS-114
XF498 = tested on: XF498
DMS-273 = tested on: DMS-273
M19-MEL = tested on: M19-MEL
DLD-1 = tested on: DLD-1
HOP-18 = tested on: HOP-18
LXFL 529 = tested on: LXFL 529
KM-20L2 = tested on: KM-20L2
RXF 631 = tested on: RXF 631

| SMILES | GI50 (DMS-114) | GI50 (XF498) | GI50 (DMS-273) | GI50 (M19-MEL) | GI50 (DLD-1) | GI50 (HOP-18) | GI50 (LXFL 529) | GI50 (KM-20L2) | GI50 (RXF 631) |
| --- | --- | --- | --- | --- | --- | --- | --- | --- | --- |
| NC1=NS(=O)(=O)N=C(N)C1=Cc1ccc([N+](=O)[O-])o1 | 17.7 µM (inactive) | 18.7 µM (inactive) | 16.7 µM (inactive) | 16.5 µM (inactive) | 17.1 µM (inactive) | 18 µM (inactive) | 17.1 µM (inactive) | 16.6 µM (inactive) |  |
| NCCSc1cc(O)c2c(c1N)C(=O)c1ccccc1C2=O |  | 21.8 µM (inactive) |  | 24.3 µM (inactive) | 30.3 µM (inactive) |  | 38.2 µM (inactive) | 5.51 µM (inactive) | 25.2 µM (inactive) |
| BrC12C3C4C5C(C(C43)C13OCCO3)C52 (stereo unspecified) | > 100 µM (inactive) | 60.4 µM (inactive) | > 100 µM (inactive) | > 100 µM (inactive) | > 100 µM (inactive) | 8.55 µM (inactive) | > 100 µM (inactive) | > 100 µM (inactive) | > 100 µM (inactive) |
| O=C1NC(=S)NC(=O)C1=Cc1ccc2ccccc2n1 | > 100 µM (inactive) |  | > 100 µM (inactive) | > 100 µM (inactive) | > 100 µM (inactive) | > 100 µM (inactive) | > 100 µM (inactive) | > 100 µM (inactive) |  |
| O=c1[nH]c(S)nc2c1sc(=S)n2-c1ccccc1 | > 100 µM (inactive) | > 100 µM (inactive) | > 100 µM (inactive) | > 100 µM (inactive) | > 100 µM (inactive) | > 100 µM (inactive) | > 100 µM (inactive) | > 100 µM (inactive) |  |
| COC(=O)/C(C#N)=C1\CCC(OC)N1C (stereo unspecified) | > 100 µM (inactive) | > 100 µM (inactive) | > 100 µM (inactive) | > 100 µM (inactive) | > 100 µM (inactive) | > 100 µM (inactive) | > 100 µM (inactive) | > 100 µM (inactive) |  |
| Cc1cc2nc(O)c(CCC(=O)O)nc2cc1C | 35.6 µM (inactive) | > 100 µM (inactive) |  | > 100 µM (inactive) | > 100 µM (inactive) | > 100 µM (inactive) | > 100 µM (inactive) | > 100 µM (inactive) | > 100 µM (inactive) |
| CCOC(=O)CCC(=O)C1c2cccc(O)c2C(=O)c2c(O)cccc21 | 0.387 µM (active) | 0.236 µM (active) | 1.28 µM (inactive) | 0.566 µM (active) | 1.69 µM (inactive) | 1.77 µM (inactive) |  |  |  |
| O=C1CC2=CCCC2O1 (stereo unspecified) | > 100 µM (inactive) | > 100 µM (inactive) | > 100 µM (inactive) | > 100 µM (inactive) | > 100 µM (inactive) |  | > 100 µM (inactive) |  |  |
| CC(C)CCC[C@@H](C)C1CCC2[C@@H]3CC=C4C[C@@H](C(=O)NCC[N+](C)(C)CCCS(=O)(=O)[O-])CC[C@]4(C)C3CC[C@@]21C (stereo partly specified) | 19.9 µM (inactive) |  | 17 µM (inactive) | 17.1 µM (inactive) | 22.4 µM (inactive) | 17.7 µM (inactive) | 18.8 µM (inactive) | 16.4 µM (inactive) | 18.4 µM (inactive) |
| CC(/C=C/NNC1=NN=C(c2ccccc2)C(c2ccccc2)N1)Sc1ccccc1N (stereo unspecified) |  |  | 6.7 µM (inactive) | 9.2 µM (inactive) | 3.62 µM (inactive) |  | 4.98 µM (inactive) | 10.6 µM (inactive) | 13.1 µM (inactive) |
| COc1ccc([C@H]2CC3C(=O)N(c4ccc(OC)cc4)C(=O)C3c3[nH]c4ccccc4c32)cc1 (stereo partly specified) | 87.9 µM (inactive) | 32.7 µM (inactive) | 14.8 µM (inactive) | 71.4 µM (inactive) | 93.8 µM (inactive) |  | 55.1 µM (inactive) | 69.5 µM (inactive) |  |
| CC(C)c1ccccc1NC(=O)CCC(=O)NN |  | > 100 µM (inactive) | > 100 µM (inactive) | > 100 µM (inactive) | > 100 µM (inactive) |  | > 100 µM (inactive) | > 100 µM (inactive) | > 100 µM (inactive) |
| CC1CC2C3CCC4=CC(=O)C=CC4(C)C3(F)C(O)CC2(C)C1(O)C(=O)CO.Cc1nnc(NS(=O)(=O)c2ccc(/N=N/c3cc(/N=N/c4ccc(S(=O)(=O)Nc5nnc(C)s5)cc4)c4c(NC(=O)C(Cl)Cl)cccc4c3OC(=O)C(Cl)Cl)cc2)s1 | 18.7 µM (inactive) | 25.8 µM (inactive) | 11.7 µM (inactive) | 18.5 µM (inactive) | 16.1 µM (inactive) |  | 31.9 µM (inactive) | 31.3 µM (inactive) | 34.6 µM (inactive) |
| COc1ccc(-c2cc(-c3cc(Cl)cc(Br)c3O)nc(O)n2)cc1 | 14.1 µM (inactive) |  | 15 µM (inactive) | 19.7 µM (inactive) | 16.7 µM (inactive) | 17.2 µM (inactive) | 14.6 µM (inactive) | 19.1 µM (inactive) |  |
| CCSc1nnc(-c2ccccc2)nc1Cc1ccc(OC)cc1 |  | 62.7 µM (inactive) | 71.9 µM (inactive) | > 100 µM (inactive) | > 100 µM (inactive) | > 100 µM (inactive) | 50.8 µM (inactive) | > 100 µM (inactive) |  |
| Cc1ccc2nc(NC(=O)C(=O)C(C#N)c3nc4ccccc4s3)sc2c1 (stereo unspecified) | 24.8 µM (inactive) | 28.8 µM (inactive) | 28.4 µM (inactive) | 43.6 µM (inactive) |  | 11.6 µM (inactive) | 28.4 µM (inactive) | 28 µM (inactive) | 44.7 µM (inactive) |
| CN(C)CC1CC/C(=C\c2ccc(Cl)cc2)C1=O (stereo unspecified) | 7.52 µM (inactive) | 7.66 µM (inactive) | 3.85 µM (inactive) | 3.54 µM (inactive) | 3.71 µM (inactive) | 18.2 µM (inactive) | 1.99 µM (inactive) | 12.1 µM (inactive) | 20.4 µM (inactive) |
| CC1(C)Oc2ccccc2N2O[C@@H]3C(=O)N(c4ccccc4)C(=O)[C@@H]3C21c1ccccc1 (stereo partly specified) | 23.2 µM (inactive) |  |  | 29 µM (inactive) | 25.1 µM (inactive) | 24.3 µM (inactive) | 56.1 µM (inactive) | 51.4 µM (inactive) |  |
| CCOC(=O)c1csc(CCCCCCc2nc(C(=O)OCC)cs2)n1 |  | 26.7 µM (inactive) | 41.2 µM (inactive) | 21.9 µM (inactive) | > 61.4 µM (inactive) | 75.5 µM (inactive) | 56.1 µM (inactive) | > 100 µM (inactive) | > 87.7 µM (inactive) |
| CSC(=O)C[C@@]12O[C@@H]([C@@H](C)C3CCC4[C@@H]5C(O)CC6=CC(=O)C=C[C@]6(C)C5CC[C@@]43C)C[C@](C)(O1)C(C)(C)O2 (stereo partly specified) | 5.81 µM (inactive) | 14.7 µM (inactive) | 15.9 µM (inactive) | 1.43 µM (inactive) |  |  | 13.2 µM (inactive) |  | 19.8 µM (inactive) |
| CC(=O)O[C@@H]1CC(C)C2CC2C2=C(C(O)OC2O)[C@@H]1C(C)CCC=C(C)C (stereo partly specified) | 23.2 µM (inactive) | 19 µM (inactive) | 21.4 µM (inactive) | 22.8 µM (inactive) | 32.4 µM (inactive) |  | 27.6 µM (inactive) | 18.7 µM (inactive) |  |
| COC(=O)C1=Cc2cc(OC)c(OC)c(OC)c2[C@H](c2cc(OC)c(OC)c(OC)c2)C1C(=O)OC (stereo partly specified) | > 100 µM (inactive) | > 100 µM (inactive) | > 100 µM (inactive) | > 100 µM (inactive) | > 100 µM (inactive) |  | > 100 µM (inactive) | > 100 µM (inactive) | > 100 µM (inactive) |
| C1CN(P2(N3CC3)=NP(N3CC3)(N3CC3)=NP(N3CC3)(N3CC3)=N2)CCO1 (stereo unspecified) [FOTRETAMINE] | 80.7 µM (inactive) | > 100 µM (inactive) | 32.4 µM (inactive) | > 100 µM (inactive) | > 53.5 µM (inactive) | > 100 µM (inactive) | > 100 µM (inactive) | > 100 µM (inactive) |  |
